US11072608B2, “Pesticidally active heterocyclic derivatives with sulphur containing substituents” (SYNGENTA PARTICIPATIONS AG, priority 2014, dated 2021)

Experiments:
Format in all cases: in vivo
[1] = system: Euschistus heros (neotropical brown stink bug); experiment: Example B8: activity against Euschistus heros, soybean leaf spray; conditions: 120 h, application rate of 200 ppm, N-2 nymphs, 5 days after infestation
Description: Example B8: Activity Against Euschistus heros (Neotropical Brown Stink Bug)
Soybean leaf on agar in 24-well microtiter plates were sprayed with aqueous test solutions prepared from 10,000 ppm DMSO stock solutions. After drying the leaf were infested with N-2 nymphs. The samples were assessed for mortality 5 days after infestation.

[2] = system: Myzus persicae (green peach aphid); experiment: Example B5: activity against Myzus persicae, sunflower leaf disc spray; conditions: foliar, 144 h, application rate of 200 ppm, sunflower leaf discs, mixed ages, 6 days after infestation
Description: Example B5: Activity Against Myzus persicae (Green Peach Aphid)
Sunflower leaf discs were placed on agar in a 24-well microtiter plate and sprayed with aqueous test solutions prepared from 10,000 ppm DMSO stock solutions. After drying, the leaf discs were infested with an aphid population of mixed ages. The samples were assessed for mortality 6 days after infestation.

[3] = system: Spodoptera littoralis (Egyptian cotton leaf worm); experiment: Example B1: activity against Spodoptera littoralis, cotton leaf disc spray; conditions: foliar, 72 h, application rate of 200 ppm, cotton leaf discs, L1 larvae, 3 days after infestation, read-out: control in at least one of the three categories (mortality, anti-feedancy or growth inhibition)
Description: Example B1: Activity Against Spodoptera littoralis (Egyptian Cotton Leaf Worm)
Cotton leaf discs were placed on agar in 24-well microtiter plates and sprayed with aqueous test solutions prepared from 10,000 ppm DMSO stock solutions. After drying the leaf discs were infested with five L1 larvae. The samples were assessed for mortality, anti-feedant effect, and growth inhibition in comparison to untreated samples 3 days after infestation. Control of Spodoptera littoralis by a test sample is when at least one of mortality, anti-feedant effect, and growth inhibition is higher than the untreated sample. The following compound gave an effect of at least 80% control in at least one of the three categories (mortality, anti-feedancy or growth inhibition) at an application rate of 200 ppm: P1, P4, P5, P8, P9, P10, P12 and P13.

[4] = system: Plutella xylostella (diamond back moth); experiment: Example B3: activity against Plutella xylostella, artificial diet; conditions: 120 h, application rate of 200 ppm, L2 larvae, 5 days after infestation, read-out: effect in at least one of the two categories (mortality or growth inhibition)
Description: Example B3: Activity Against Plutella xylostella (Diamond Back Moth)
24-well microtiter plates with artificial diet were treated with aqueous test solutions prepared from 10,000 ppm DMSO stock solutions by pipetting. After drying, the plates were infested with L2 larvae (10 to 15 per well). The samples were assessed for mortality and growth inhibition in comparison to untreated samples 5 days after infestation. The following compound gave an effect of at least 80% in at least one of the two categories (mortality or growth inhibition) at an application rate of 200 ppm: P1, P4, P5, P6, P8, P9, P10, P11, P12 and P13.

[5] = system: Spodoptera littoralis (Egyptian cotton leaf worm); experiment: Example B2: activity against Spodoptera littoralis, systemic via lettuce on agar; conditions: 144 h, application rate of 12.5 ppm, Spodoptera eggs, 6 days after infestation, read-out: control in at least one of the three categories (mortality, anti-feedancy or growth inhibition)
Description: Example B2: Activity Against Spodoptera Littoralis (Egyptian Cotton Leaf Worm)
Test compounds were applied by pipette from 10,000 ppm DMSO stock solutions into 24-well plates and mixed with agar. Lettuce seeds were placed on the agar and the multi well plate was closed by another plate which contains also agar. After 7 days the roots have absorbed the compound and the lettuce has grown into the lid plate. The lettuce leafs were now cut off into the lid plate. Spodoptera eggs were pipetted through a plastic stencil on a humid gel blotting paper and the plate closed with it. The samples were assessed for mortality, anti-feedant effect and growth inhibition in comparison to untreated samples 6 days after infestation. The following compound gave an effect of at least 80% control in at least one of the three categories (mortality, anti-feedancy or growth inhibition) at an application rate of 12.5 ppm: P1, P4, P9, P12 and P13.

[6] = system: Myzus persicae (green peach aphid); experiment: Example B6: activity against Myzus persicae, sucrose solution through Parafilm; conditions: 120 h, test rate of 12 ppm, 5 days after infestation
Description: Example B6: Activity Against Myzus persicae (Green Peach Aphid)
Test compounds from 10,000 ppm DMSO stock solutions were applied by pipette into 24-well microtiter plates and mixed with sucrose solution. The plates were closed with a stretched Parafilm. A plastic stencil with 24 holes was placed onto the plate and infested pea seedlings were placed directly on the Parafilm. The infested plate was closed with a gel blotting paper and another plastic stencil and then turned upside down. The samples were assessed for mortality 5 days after infestation.

[7] = system: Diabrotica balteata (corn root worm); experiment: Example B4: activity against Diabrotica balteata, maize sprouts spray; conditions: 96 h, application rate of 200 ppm, L2 larvae, 4 days after infestation, read-out: effect in at least one of the two categories (mortality or growth inhibition)
Description: Example B4: Activity Against Diabrotica balteata (Corn Root Worm)
Maize sprouts, placed on an agar layer in 24-well microtiter plates were treated with aqueous test solutions prepared from 10,000 ppm DMSO stock solutions by spraying. After drying, the plates were infested with L2 larvae (6 to 10 per well). The samples were assessed for mortality and growth inhibition in comparison to untreated samples 4 days after infestation. The following compounds gave an effect of at least 80% in at least one of the two categories (mortality or growth inhibition) at an application rate of 200 ppm: P1, P4, P5, P6, P8, P9, P10, P11, P12 and P13.

CCSc1cc(C2CC2)cnc1-c1nc2cc(C(F)(F)F)cnc2n1C [Compound P1, 2-(5-cyclopropyl-3-ethylsulfanyl-2-pyridyl)-3-methyl-6-(trifluoromethyl)imidazo[4,5-b]pyridine]
≥ 80%: mortality at 200 ppm [1] | mortality at 200 ppm [2] | percent control (mortality, anti-feedancy or growth inhibition) at 200 ppm [3] | percent effect (mortality or growth inhibition) at 200 ppm [4] | control at 12.5 ppm [5] | mortality at 12 ppm [6] | percent effect (mortality or growth inhibition) at 200 ppm [7]
